Assay results as given in patent publication US20240181022A1, “AMURINS LYSINS, AND LYSIN-ANTIMICROBIAL PEPTIDE (AMP) CONSTRUCTS ACTIVE AGAINST GRAM-NEGATIVE BACTERIA” (priority 2021, published 2024).
Where no end group is shown, it is not given here.

Assays:
Mycobacterium species = type: cell-based
M. fortuitum = test: MIC against M. fortuitum; type: cell-based, Mycobacterium fortuitum; conditions: M. fortuitum (ATCC 6841); CAAT media
M. avium = test: MIC against M. avium; type: cell-based, Mycobacterium avium; conditions: M. avium (ATCC 700898); CAAT media
M. scrofulaceum = test: MIC against M. scrofulaceum; type: cell-based, Mycobacterium scrofulaceum; conditions: M. scrofulaceum (ATCC 19981); CAAT media
A. ruhlandii [1] = test: MIC by broth microdilution against A. ruhlandii; type: cell-based, Achromobacter ruhlandii; conditions: A. ruhlandii isolates
Protocol: (§1) MIC values were determined using a modification of the standard broth microdilution reference method defined by the Clinical and Laboratory Standards Institute (CLSI), CLSL. 2015. Methods for Dilution Antimicrobial Susceptibility Tests for Bacteria That Grow Aerobically; Approved Standard-10th Edition. Clinical and Laboratory Standards Institute, Wayne, PA. The modification was based on the replacement of Mueller Hinton Broth with either CAA media (with and without NaCl) or CAA supplemented with 2.5% human serum. MIC is the minimum concentration of peptide sufficient to suppress at least 80% of the bacterial growth compared to control.
(§2) Based on these nine most prevalent strains, direct lytic agents, including GN370, AM1, AM2, and AM3, were evaluated against various isolates from each of the 9 strains. MICs and MBECs (Example 3) were determined, and a sputum inhibition test was conducted, as described below in Example 5.
(§3) The MICs for were determined as described below using the broth microdilution method for meropenem, GN370, AM1, AM2, and AM3. The results are shown below in Tables 8-12.

B. gladioli [2] = test: MIC by broth microdilution against B. gladioli; type: cell-based, Burkholderia gladioli; conditions: B. gladioli isolates
Protocol: as §1, §2, §3

A. xylosoxidans [3] = test system: A. xylosoxidans
Protocol: (§4) Biofilms are then washed and treated with e.g., a 2-fold dilution series of the lysin in TSBg at e.g., 37° C. for 24 hours. After treatment, wells are washed, air-dried at e.g., 37° C. and stained with e.g., 0.05% crystal violet for 10 minutes.
(§5) The antibiofilm activity of GN370, AM1, AM2, and AM3 was evaluated against various Gram-negative bacteria prevalent in cystic fibrosis patients, including P. aeruginosa, S. maltophilia, and A. xylosoxidans.
(§6) The MBEC (after 2-hour treatments) was determined as described in Jones and Wozniak, PsI Produced by Mucoid Pseudomonas aeruginosa Contributes to the Establishment of Biofilms and Immune Evasion, Am. […] Microbiol.

B. multivorans = test system: B. multivorans
Protocol: as §4, §5, §6

S. maltophilia [4] = test system: S. maltophilia
Protocol: as §4, §5, §6

P. aeruginosa [5] = test: Time-kill assay in cystic fibrosis patient sputum, P. aeruginosa; type: cell-based, Pseudomonas aeruginosa
From the text: (§7) Sputum from 5 cystic fibrosis patients was pooled. The resulting mixture was not filtered, as it was very dense and not amenable to sterilization by filtration. Sputum is known to be a complex mixture of DNA, carbohydrates, and lipids ([…], 2016). As used herein, the term “sputum” refers to the mucus present in the respiratory tract of an animal, such as a human. Sputum may increase in thickness due to the irritation or infection, including bacterial infection, and in some instances, may be expelled by the animal while coughing. In certain instances, cystic fibrosis may be characterized by the presence of a thick, sticky mucus or sputum present in the lungs of cystic fibrosis patients. The activity of GN370, AM1, AM2, AM3, and meropenem was determined in the sputum using a time-kill assay format as disclosed in Zhang et al., Antimicrobial peptide therapeutics for cystic fibrosis, Antimicrobial Agents Chemother. 2005; 49(7):2921-2927. […] Untreated controls were included in addition to pretreatment plating (t=0) for a baseline CFU determination. Activity was also determined in the absence of sputum for comparison to activity observed in the presence of sputum.

A. xylosoxidans [6] = test: Time-kill assay in cystic fibrosis patient sputum, A. xylosoxidans; type: cell-based, Achromobacter xylosoxidans
From the text: as §7

P. aeruginosa [7] = test: Serial passage resistance development study, P. aeruginosa; type: cell-based, Pseudomonas aeruginosa; conditions: P. aeruginosa strain CFS 1292, Day 28
S. maltophilia [8] = test: Serial passage resistance development study, S. maltophilia; type: cell-based, Stenotrophomonas maltophilia; conditions: S. maltophilia, day 28, triplicate
A. ruhlandii [9] = type: cell-based, Achromobacter ruhlandii
Protocol: (§8) The MBEC (after 2-hour treatments) was determined as described in Jones and Wozniak, PsI Produced by Mucoid Pseudomonas aeruginosa Contributes to the Establishment of Biofilms and Immune Evasion, Am. Soc. Microbiol. 2017, 8(3):e00864-17. Meropenem and tobramycin were included as controls and were both poorly active, with MBEC90 values of >256 μg/mL (data not shown).

A. dolens = type: cell-based, Achromobacter dolens
Protocol: as §8

B. gladioli [10] = type: cell-based, Burkholderia gladioli; conditions: B. gladioli (15); 2-hour treatment
Protocol: as §8

P. aeruginosa [11] = test system: P. aeruginosa

MRLKMARRRYRLPRRRSRRLFSRTALRMHPRNRLRRIMRGGIRF [AM1]
activity (MIC) against Mycobacterium species (Mycobacterium species): highest activity
MIC (M. fortuitum): 2 µg/mL
MIC (M. avium): 1 Tg/mL
MIC (M. scrofulaceum): 0.5 µg/mL
MIC50 (A. ruhlandii [1]): 1 µg/mL
MIC90 (A. ruhlandii [1]): 4 µg/mL
MIC Range (A. ruhlandii [1]; in µg/mL): 0.125-8
MIC50 (B. gladioli [2]): 8 µg/mL
MIC90 (B. gladioli [2]): 64 µg/mL
MIC Range (B. gladioli [2]; in µg/mL): 0.03-128
MBEC50 (A. xylosoxidans [3]): 0.5 µg/mL
MBEC90 (A. xylosoxidans [3]): 1 µg/mL
MBEC Range (A. xylosoxidans [3]): 0.125 to 2 µg/mL
antibiofilm activity (MBEC) against A. xylosoxidans (A. xylosoxidans [3]; 2-hour treatments): highly active
MBEC50 (B. multivorans): 2 µg/mL
MBEC90 (B. multivorans): 4 µg/mL
MBEC Range (B. multivorans): 2 to 4 µg/mL
antibiofilm activity (MBEC) against B. multivorans (B. multivorans; 2-hour treatments): highly active
MBEC50 (S. maltophilia [4]): 1 µg/mL
MBEC90 (S. maltophilia [4]): 2 µg/mL
MBEC Range (S. maltophilia [4]): 0.25 to 2 µg/mL
antibiofilm activity (MBEC) against S. maltophilia (S. maltophilia [4]; 2-hour treatments): highly active
effect of sputum on antibacterial activity (P. aeruginosa [5]; 10% CF sputum vs no sputum): not inhibited
Log10 CFU/mL of sputum (P. aeruginosa [5]; absence of sputum, 1 hr): 2.3 Log10 CFU/mL of sputum
Log10 CFU/mL of sputum (P. aeruginosa [5]; absence of sputum, 3 hr): 2.3 Log10 CFU/mL of sputum
Log10 CFU/mL of sputum (P. aeruginosa [5]; absence of sputum, 24 hr): 2.3 Log10 CFU/mL of sputum
Log10 CFU/mL of sputum (P. aeruginosa [5]; presence of 10% sputum, 1 hr): 2.3 Log10 CFU/mL of sputum
Log10 CFU/mL of sputum (P. aeruginosa [5]; presence of 10% sputum, 3 hr): 2.3 Log10 CFU/mL of sputum
Log10 CFU/mL of sputum (P. aeruginosa [5]; presence of 10% sputum, 24 hr): 2.3 Log10 CFU/mL of sputum
killing by 1 hour, maintained by 24 hours (P. aeruginosa [5]; time-kill): complete killing
effect of sputum on antibacterial activity (A. xylosoxidans [6]; 10% CF sputum vs no sputum): none of GN370, AM1, AM2, and AM3 was inhibited
Log10 CFU/mL of sputum (A. xylosoxidans [6]; absence of sputum, 1 hr): 2.3 Log10 CFU/mL of sputum
Log10 CFU/mL of sputum (A. xylosoxidans [6]; absence of sputum, 3 hr): 2.3 Log10 CFU/mL of sputum
Log10 CFU/mL of sputum (A. xylosoxidans [6]; absence of sputum, 24 hr): 2.3 Log10 CFU/mL of sputum
Log10 CFU/mL of sputum (A. xylosoxidans [6]; presence of 10% sputum, 1 hr): 2.3 Log10 CFU/mL of sputum
Log10 CFU/mL of sputum (A. xylosoxidans [6]; presence of 10% sputum, 3 hr): 2.3 Log10 CFU/mL of sputum
Log10 CFU/mL of sputum (A. xylosoxidans [6]; presence of 10% sputum, 24 hr): 2.3 Log10 CFU/mL of sputum
killing by 1 hour, maintained at 24 hours (A. xylosoxidans [6]; time-kill): complete killing
change in MIC over serial passage (P. aeruginosa [7]): no significant changes
change in MIC over serial passage (S. maltophilia [8]): no increase in MIC
MBEC50 (A. ruhlandii [9]): 16 µg/mL
MBEC90 (A. ruhlandii [9]): 16 µg/mL
MBEC Range (A. ruhlandii [9]): 2 to 16 µg/mL
MBEC50 (A. dolens): 2 µg/mL
MBEC90 (A. dolens): 4 µg/mL
MBEC Range (A. dolens): 1 to 8 µg/mL
MBEC50 (B. gladioli [10]): 4 µg/mL
MBEC90 (B. gladioli [10]): 16 µg/mL
MBEC Range (B. gladioli [10]): 0.5 to 32 µg/mL
MBEC50 (P. aeruginosa [11]): 0.5 µg/mL
MBEC90 (P. aeruginosa [11]): 1 µg/mL
MBEC Range (P. aeruginosa [11]): 0.064 to 2 µg/mL
antibiofilm activity (MBEC) against P. aeruginosa (P. aeruginosa [11]; 2-hour treatments): highly active
